Data: US20070049564A1 (Wyeth, priority 2005, published 2007)
≈ marks a conversion by molar mass, not a printed value. Read-outs that look alike come from different tables or passages of the source.

What was measured:
E. coli GC 4560 = experiment: MIC, broth microdilution; settings: Escherichia coli
E. coli GC 2231 = experiment: MIC, broth microdilution; settings: Escherichia coli
S. aureus GC 2216 = experiment: MIC, broth microdilution; settings: Staphylococcus aureus
E. coli GC 2203 = experiment: MIC, broth microdilution; settings: Escherichia coli
E. coli GC 2232 = experiment: MIC, broth microdilution; settings: Escherichia coli
S. pneumoniae* GC 4465 = experiment: MIC, broth microdilution; settings: Streptococcus pneumoniae
E. coli GC 3226 = experiment: MIC, broth microdilution; settings: Escherichia coli
S. aureus GC 6335 = experiment: MIC, broth microdilution; settings: Staphylococcus aureus
E. coli GC 2271 = experiment: MIC, broth microdilution; settings: Escherichia coli
E. coli GC 4559 = experiment: MIC, broth microdilution; settings: Escherichia coli
E. faecalis GC 2267 = experiment: MIC, broth microdilution; settings: Enterococcus faecalis
E. coli GC 2270 = experiment: MIC, broth microdilution; settings: Escherichia coli
S. aureus GC 6467 = experiment: MIC, broth microdilution; settings: Staphylococcus aureus
Staph. aureus Smith = experiment: In vivo activity (oral, iv; ED50) against Staph. aureus Smith in mice
E. coli GC 2235 = experiment: MIC, broth microdilution; settings: Escherichia coli
S. agalactiae GC 4564 = experiment: MIC, broth microdilution; settings: Streptococcus agalactiae
S. typhimurium GC 2172 = experiment: MIC, broth microdilution; settings: Salmonella enterica, TYPHIMURIUM
E. faecium GC 4556 = experiment: MIC, broth microdilution; settings: Enterococcus faecium
E. faecalis GC 2242 = experiment: MIC, broth microdilution; settings: Enterococcus faecalis
P. aeruginosa GC 2214 = experiment: MIC, broth microdilution; settings: Pseudomonas aeruginosa
[1] = read-out: MINIMAL INHIBITORY CONCENTRATION MIC, pre-incubated in Human Serum
[2] = read-out: MINIMAL INHIBITORY CONCENTRATION MIC, pre-incubated in Mouse Serum
[3] = read-out: MINIMAL INHIBITORY CONCENTRATION MIC, pre-incubated in Water

MIC (E. coli GC 4560; GC4560, read-out: MINIMAL INHIBITORY CONCENTRATION MIC, pre-incubated in Human Serum): 1 µg/mL (≈ 1.32 µM) | MIC (E. coli GC 4560; GC4560, read-out: MINIMAL INHIBITORY CONCENTRATION MIC, pre-incubated in Mouse Serum): 0.5 µg/mL (≈ 0.662 µM) | MIC (E. coli GC 4560; GC4560, read-out: MINIMAL INHIBITORY CONCENTRATION MIC, pre-incubated in Water): 4 µg/mL (≈ 5.29 µM) | MIC (E. coli GC 2231; GC2231, read-out: MINIMAL INHIBITORY CONCENTRATION MIC, pre-incubated in Human Serum): 4 µg/mL (≈ 5.29 µM) | MIC (E. coli GC 2231; GC2231, read-out: MINIMAL INHIBITORY CONCENTRATION MIC, pre-incubated in Mouse Serum): 0.5 µg/mL (≈ 0.662 µM) | MIC (E. coli GC 2231; GC2231, read-out: MINIMAL INHIBITORY CONCENTRATION MIC, pre-incubated in Water): 64 µg/mL (≈ 84.7 µM) | MIC (S. aureus GC 2216; GC2216, read-out: MINIMAL INHIBITORY CONCENTRATION MIC, pre-incubated in Human Serum): 0.5 µg/mL (≈ 0.662 µM) | MIC (S. aureus GC 2216; GC2216, read-out: MINIMAL INHIBITORY CONCENTRATION MIC, pre-incubated in Mouse Serum): 0.5 µg/mL (≈ 0.662 µM) | MIC (S. aureus GC 2216; GC2216, read-out: MINIMAL INHIBITORY CONCENTRATION MIC, pre-incubated in Water): 1 µg/mL (≈ 1.32 µM) | MIC (E. coli GC 2203; GC2203, read-out: MINIMAL INHIBITORY CONCENTRATION MIC, pre-incubated in Human Serum): 8 µg/mL (≈ 10.6 µM) | MIC (E. coli GC 2203; GC2203, read-out: MINIMAL INHIBITORY CONCENTRATION MIC, pre-incubated in Mouse Serum): 0.5 µg/mL (≈ 0.662 µM) | MIC (E. coli GC 2203; GC2203, read-out: MINIMAL INHIBITORY CONCENTRATION MIC, pre-incubated in Water): > 64 µg/mL | MIC (E. coli GC 2232; GC2232, read-out: MINIMAL INHIBITORY CONCENTRATION MIC, pre-incubated in Human Serum): 4 µg/mL (≈ 5.29 µM) | MIC (E. coli GC 2232; GC2232, read-out: MINIMAL INHIBITORY CONCENTRATION MIC, pre-incubated in Mouse Serum): 0.5 µg/mL (≈ 0.662 µM) | MIC (E. coli GC 2232; GC2232, read-out: MINIMAL INHIBITORY CONCENTRATION MIC, pre-incubated in Water): 64 µg/mL (≈ 84.7 µM) | MIC (S. pneumoniae* GC 4465; [1]): 0.12 µg/mL (≈ 0.159 µM) | MIC (S. pneumoniae* GC 4465; [2]): 0.12 µg/mL (≈ 0.159 µM) | MIC (S. pneumoniae* GC 4465; [3]): 0.12 µg/mL (≈ 0.159 µM) | MIC (E. coli GC 3226; GC3226, read-out: MINIMAL INHIBITORY CONCENTRATION MIC, pre-incubated in Human Serum): 16 µg/mL (≈ 21.2 µM) | MIC (E. coli GC 3226; GC3226, read-out: MINIMAL INHIBITORY CONCENTRATION MIC, pre-incubated in Mouse Serum): 1 µg/mL (≈ 1.32 µM) | MIC (E. coli GC 3226; GC3226, read-out: MINIMAL INHIBITORY CONCENTRATION MIC, pre-incubated in Water): > 64 µg/mL | MIC (S. aureus GC 6335; GC6335, read-out: MINIMAL INHIBITORY CONCENTRATION MIC, pre-incubated in Human Serum): 0.5 µg/mL (≈ 0.662 µM) | MIC (S. aureus GC 6335; GC6335, read-out: MINIMAL INHIBITORY CONCENTRATION MIC, pre-incubated in Mouse Serum): 1 µg/mL (≈ 1.32 µM) | MIC (S. aureus GC 6335; GC6335, read-out: MINIMAL INHIBITORY CONCENTRATION MIC, pre-incubated in Water): 1 µg/mL (≈ 1.32 µM) | MIC (E. coli GC 2271; GC2271, read-out: MINIMAL INHIBITORY CONCENTRATION MIC, pre-incubated in Human Serum): 4 µg/mL (≈ 5.29 µM) | MIC (E. coli GC 2271; GC2271, read-out: MINIMAL INHIBITORY CONCENTRATION MIC, pre-incubated in Mouse Serum): 0.5 µg/mL (≈ 0.662 µM) | MIC (E. coli GC 2271; GC2271, read-out: MINIMAL INHIBITORY CONCENTRATION MIC, pre-incubated in Water): 64 µg/mL (≈ 84.7 µM) | MIC (E. coli GC 4559; GC4559, read-out: MINIMAL INHIBITORY CONCENTRATION MIC, pre-incubated in Human Serum): 8 µg/mL (≈ 10.6 µM) | MIC (E. coli GC 4559; GC4559, read-out: MINIMAL INHIBITORY CONCENTRATION MIC, pre-incubated in Mouse Serum): 1 µg/mL (≈ 1.32 µM) | MIC (E. coli GC 4559; GC4559, read-out: MINIMAL INHIBITORY CONCENTRATION MIC, pre-incubated in Water): > 64 µg/mL | MIC (E. faecalis GC 2267; GC2267, read-out: MINIMAL INHIBITORY CONCENTRATION MIC, pre-incubated in Human Serum): 1 µg/mL (≈ 1.32 µM) | MIC (E. faecalis GC 2267; GC2267, read-out: MINIMAL INHIBITORY CONCENTRATION MIC, pre-incubated in Mouse Serum): 0.5 µg/mL (≈ 0.662 µM) | MIC (E. faecalis GC 2267; GC2267, read-out: MINIMAL INHIBITORY CONCENTRATION MIC, pre-incubated in Water): 2 µg/mL (≈ 2.65 µM) | MIC (E. coli GC 2270; GC2270, read-out: MINIMAL INHIBITORY CONCENTRATION MIC, pre-incubated in Human Serum): 4 µg/mL (≈ 5.29 µM) | MIC (E. coli GC 2270; GC2270, read-out: MINIMAL INHIBITORY CONCENTRATION MIC, pre-incubated in Mouse Serum): 0.5 µg/mL (≈ 0.662 µM) | MIC (E. coli GC 2270; GC2270, read-out: MINIMAL INHIBITORY CONCENTRATION MIC, pre-incubated in Water): > 64 µg/mL | MIC (S. aureus GC 6467; GC6467, read-out: MINIMAL INHIBITORY CONCENTRATION MIC, pre-incubated in Human Serum): 0.5 µg/mL (≈ 0.662 µM) | MIC (S. aureus GC 6467; GC6467, read-out: MINIMAL INHIBITORY CONCENTRATION MIC, pre-incubated in Mouse Serum): 1 µg/mL (≈ 1.32 µM) | MIC (S. aureus GC 6467; GC6467, read-out: MINIMAL INHIBITORY CONCENTRATION MIC, pre-incubated in Water): 1 µg/mL (≈ 1.32 µM) | MIC (E. coli GC 2235; GC2235, read-out: MINIMAL INHIBITORY CONCENTRATION MIC, pre-incubated in Human Serum): 4 µg/mL (≈ 5.29 µM) | MIC (E. coli GC 2235; GC2235, read-out: MINIMAL INHIBITORY CONCENTRATION MIC, pre-incubated in Mouse Serum): 0.5 µg/mL (≈ 0.662 µM) | MIC (E. coli GC 2235; GC2235, read-out: MINIMAL INHIBITORY CONCENTRATION MIC, pre-incubated in Water): 64 µg/mL (≈ 84.7 µM) | MIC (S. agalactiae GC 4564; GC4564, read-out: MINIMAL INHIBITORY CONCENTRATION MIC, pre-incubated in Human Serum): 0.25 µg/mL (≈ 0.331 µM) | MIC (S. agalactiae GC 4564; GC4564, read-out: MINIMAL INHIBITORY CONCENTRATION MIC, pre-incubated in Mouse Serum): 0.25 µg/mL (≈ 0.331 µM) | MIC (S. agalactiae GC 4564; GC4564, read-out: MINIMAL INHIBITORY CONCENTRATION MIC, pre-incubated in Water): 0.25 µg/mL (≈ 0.331 µM) | MIC (S. typhimurium GC 2172; [1]): 32 µg/mL (≈ 42.3 µM) | MIC (S. typhimurium GC 2172; [2]): 2 µg/mL (≈ 2.65 µM) | MIC (S. typhimurium GC 2172; [3]): > 64 µg/mL | MIC (E. faecium GC 4556; GC4556, read-out: MINIMAL INHIBITORY CONCENTRATION MIC, pre-incubated in Human Serum): 1 µg/mL (≈ 1.32 µM) | MIC (E. faecium GC 4556; GC4556, read-out: MINIMAL INHIBITORY CONCENTRATION MIC, pre-incubated in Mouse Serum): 0.5 µg/mL (≈ 0.662 µM) | MIC (E. faecium GC 4556; GC4556, read-out: MINIMAL INHIBITORY CONCENTRATION MIC, pre-incubated in Water): 1 µg/mL (≈ 1.32 µM) | MIC (E. faecalis GC 2242; GC2242, read-out: MINIMAL INHIBITORY CONCENTRATION MIC, pre-incubated in Human Serum): 1 µg/mL (≈ 1.32 µM) | MIC (E. faecalis GC 2242; GC2242, read-out: MINIMAL INHIBITORY CONCENTRATION MIC, pre-incubated in Mouse Serum): 0.5 µg/mL (≈ 0.662 µM) | MIC (E. faecalis GC 2242; GC2242, read-out: MINIMAL INHIBITORY CONCENTRATION MIC, pre-incubated in Water): 1 µg/mL (≈ 1.32 µM) | MIC (P. aeruginosa GC 2214; GC2214, read-out: MINIMAL INHIBITORY CONCENTRATION MIC, pre-incubated in Human Serum): > 64 µg/mL | MIC (P. aeruginosa GC 2214; GC2214, read-out: MINIMAL INHIBITORY CONCENTRATION MIC, pre-incubated in Mouse Serum): 16 µg/mL (≈ 21.2 µM) | MIC (P. aeruginosa GC 2214; GC2214, read-out: MINIMAL INHIBITORY CONCENTRATION MIC, pre-incubated in Water): > 64 µg/mL
SMILES: CN(C)c1cc(NC(=O)CN(C(=O)OCOC(=O)C2CCCC2)C(C)(C)C)c(O)c2c1C[C@H]1C[C@H]3[C@H](N(C)C)C(O)=C(C(N)=O)C(=O)[C@@]3(O)C(O)=C1C2=O [Example 46, ({[(2-{[(5aR,6aS,7S,10aS)-9-(aminocarbonyl)-4,7-bis(dimethylamino)-1,8,10a,11-tetrahydroxy-10,12-dioxo-5,5a,6,6a,7,10,10a,12-octahydrotetracen-2-yl]amino}-2-oxoethyl)(tert-butyl)amino]carbonyl}oxy)methyl cyclopentanecarboxylate]
ED50 (Staph. aureus Smith; Staphylococcus aureus, in Mus musculus, po, read-out: ED50 Staph Smith SOD): 8.4 mg/kg | ED50 (Staph. aureus Smith; iv, read-out: ED50 Staph Smith SIV): 0.83 mg/kg
